Molecular target: T1, sGC α1/β1 heterodimer (Homo sapiens, UniProt Q02108+Q02153)
T1 construct: expressed in transfected cells; host or cells: CHO-K1 (clone #7, CHO-K1/sGC)
T1 sequence (Q02108 1-690): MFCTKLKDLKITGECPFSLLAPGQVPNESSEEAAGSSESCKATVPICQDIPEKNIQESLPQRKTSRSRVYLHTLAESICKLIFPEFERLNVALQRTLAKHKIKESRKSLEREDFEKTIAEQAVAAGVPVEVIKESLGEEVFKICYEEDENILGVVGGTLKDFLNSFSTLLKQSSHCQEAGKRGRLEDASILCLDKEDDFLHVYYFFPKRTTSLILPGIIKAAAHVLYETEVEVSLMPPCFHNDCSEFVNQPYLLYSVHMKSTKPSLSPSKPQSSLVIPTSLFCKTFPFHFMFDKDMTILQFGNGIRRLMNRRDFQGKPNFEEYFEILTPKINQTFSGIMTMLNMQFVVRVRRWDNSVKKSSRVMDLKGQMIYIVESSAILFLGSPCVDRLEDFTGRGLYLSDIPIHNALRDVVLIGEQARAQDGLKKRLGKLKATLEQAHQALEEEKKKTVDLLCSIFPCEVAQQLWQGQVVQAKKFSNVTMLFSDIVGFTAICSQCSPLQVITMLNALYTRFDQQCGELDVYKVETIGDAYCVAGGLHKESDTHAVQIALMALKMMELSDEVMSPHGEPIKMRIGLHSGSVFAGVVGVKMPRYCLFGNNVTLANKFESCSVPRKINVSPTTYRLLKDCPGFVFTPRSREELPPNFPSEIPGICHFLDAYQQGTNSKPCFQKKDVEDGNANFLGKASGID
T1 sequence (Q02153 1-619): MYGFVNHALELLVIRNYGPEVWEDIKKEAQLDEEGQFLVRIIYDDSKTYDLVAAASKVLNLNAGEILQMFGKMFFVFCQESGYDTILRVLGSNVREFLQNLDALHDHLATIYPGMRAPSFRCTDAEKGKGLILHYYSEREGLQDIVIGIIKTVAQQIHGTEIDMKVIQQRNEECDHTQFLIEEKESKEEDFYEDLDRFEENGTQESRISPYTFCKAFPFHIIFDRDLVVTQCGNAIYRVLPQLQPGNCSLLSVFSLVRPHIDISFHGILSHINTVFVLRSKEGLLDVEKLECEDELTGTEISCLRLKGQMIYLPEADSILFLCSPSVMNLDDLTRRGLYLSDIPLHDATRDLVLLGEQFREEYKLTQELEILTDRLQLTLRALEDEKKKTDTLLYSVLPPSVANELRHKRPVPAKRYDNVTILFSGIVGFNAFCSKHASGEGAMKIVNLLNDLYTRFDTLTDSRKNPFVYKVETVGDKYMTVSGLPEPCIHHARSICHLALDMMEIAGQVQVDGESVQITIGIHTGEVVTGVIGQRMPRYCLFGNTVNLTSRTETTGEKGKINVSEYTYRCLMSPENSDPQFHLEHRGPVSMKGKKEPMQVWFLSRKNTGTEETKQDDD
Experiment: Cell-based sGC functional assay (CASA assay): cGMP generation in CHO-K1/sGC cells, HTRF detection
Settings: for Emax: CHO-K1, percent activation relative to standard Compound A in CHO-K1/sGC cells, read-out: % Act.; for EC50: inflection point (IP) of cGMP generation in CHO-K1/sGC cells, 4P fit, activity expressed as percentage of Compound A
Method in brief: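 cGMP was quantified by HTRF after 1 hr, 37° C exposure of thawed CHO-K1 cells expressing sGC α1/β1 to compound, with or without 1 μM DETA-NO. IBMX (0.5 mM) blocked cGMP breakdown, and DMSO was 2.5% final. Percent of standard Compound A's maximal cGMP was fitted (4P) for inflection point.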

Emax | EC50 | Structure (SMILES)
86% | 182 nM | CC1(C(=O)NC2CC2)C(=O)Nc2nc(-c3cn4cc(C(F)(F)F)nc4c(Cc4cccc(F)c4F)n3)nc(N)c21 (centres unmarked) [Example 43A, 4-amino-N-cyclopropyl-2-(8-(2,3-difluorobenzyl)-2-(trifluoromethyl)imidazo[1,2-a]pyrazin-6-yl)-5-methyl-6-oxo-6,7-dihydro-5H-pyrrolo[2,3-d]pyrimidine-5-carboxamide]
88% | 286 nM | Nc1nc(-c2cn3cc(C(F)(F)F)nc3c(Cc3cccc(F)c3)n2)nc2c1C(C(=O)NC1CC1)(C1CC1)C(=O)N2 (centres unmarked) [Example 44B, 4-amino-N,5-dicyclopropyl-2-(8-(3-fluorobenzyl)-2-(trifluoromethyl)imidazo[1,2-a]pyrazin-6-yl)-6-oxo-6,7-dihydro-5H-pyrrolo[2,3-d]pyrimidine-5-carboxamide]
86% | 668 nM | Nc1nc(-c2cn3cc(C(F)(F)F)nc3c(Cc3ccccc3F)n2)nc2c1C(C(=O)NC1CC1)(C1CC1)C(=O)N2 (centres unmarked) [Example 45A, 4-amino-N,5-dicyclopropyl-2-(8-(2-fluorobenzyl)-2-(trifluoromethyl)imidazo[1,2-a]pyrazin-6-yl)-6-oxo-6,7-dihydro-5H-pyrrolo[2,3-d]pyrimidine-5-carboxamide]
124% | 570 nM | CC1(C(=O)NC2CC2)C(=O)Nc2nc(-c3cn4cc(C(F)(F)F)nc4c(Cc4cccc(F)c4)n3)nc(N)c21 (centres unmarked) [Example 46A, 4-amino-N-cyclopropyl-2-(8-(3-fluorobenzyl)-2-(trifluoromethyl)imidazo[1,2-a]pyrazin-6-yl)-5-methyl-6-oxo-6,7-dihydro-5H-pyrrolo[2,3-d]pyrimidine-5-carboxamide]
118% | 735 nM | CC1(C(=O)NC2CC2)C(=O)Nc2nc(-c3cn4cc(C(F)(F)F)nc4c(Cc4ccccc4F)n3)nc(N)c21 (centres unmarked) [Example 47B, 4-amino-N-cyclopropyl-2-(8-(2-fluorobenzyl)-2-(trifluoromethyl)imidazo[1,2-a]pyrazin-6-yl)-5-methyl-6-oxo-6,7-dihydro-5H-pyrrolo[2,3-d]pyrimidine-5-carboxamide]
93% | 442 nM | Nc1nc(-c2cn3cc(C(F)(F)F)nc3c(Cc3cccc(F)c3F)n2)nc2c1C(C(=O)NC1CC1)(C1CC1)C(=O)N2 (centres unmarked) [Example 48B, 4-amino-N,5-dicyclopropyl-2-(8-(2,3-difluorobenzyl)-2-(trifluoromethyl)imidazo[1,2-a]pyrazin-6-yl)-6-oxo-6,7-dihydro-5H-pyrrolo[2,3-d]pyrimidine-5-carboxamide]
86% | 829 nM | Nc1nc(-c2cn3cc(C(F)(F)F)nc3c(Cc3ccc(F)cc3)n2)nc2c1C(C(=O)NC1CC1)(C1CC1)C(=O)N2 (centres unmarked) [Example 50B, 4-amino-N,5-dicyclopropyl-2-(8-(4-fluorobenzyl)-2-(trifluoromethyl)imidazo[1,2-a]pyrazin-6-yl)-6-oxo-6,7-dihydro-5H-pyrrolo[2,3-d]pyrimidine-5-carboxamide]
93% | 890 nM | Nc1nc(-c2cn3cc(C(F)(F)F)nc3c(Cc3ccccc3)n2)nc2c1C(C(=O)NC1CC1)(C1CC1)C(=O)N2 (centres unmarked) [Example 51A, 4-amino-2-(8-benzyl-2-(trifluoromethyl)imidazo[1,2-a]pyrazin-6-yl)-N,5-dicyclopropyl-6-oxo-6,7-dihydro-5H-pyrrolo[2,3-d]pyrimidine-5-carboxamide]
93% | 950 nM | CC1(C(=O)NC2CC2)C(=O)Nc2nc(-c3cn4cc(C(F)(F)F)nc4c(Cc4ccc(F)c(F)c4)n3)nc(N)c21 (centres unmarked) [Example 52A, 4-amino-N-cyclopropyl-2-(8-(3,4-difluorobenzyl)-2-(trifluoromethyl)imidazo[1,2-a]pyrazin-6-yl)-5-methyl-6-oxo-6,7-dihydro-5H-pyrrolo[2,3-d]pyrimidine-5-carboxamide]
91% | 144 nM | Nc1nc(-c2cn3ccnc3c(CCC(F)(F)C(F)(F)F)n2)nc2c1C(c1nnc(C3CC3)s1)(C1CC1)C(=O)N2 (centres unmarked) [Example 54A, 4-amino-5-cyclopropyl-5-(5-cyclopropyl-1,3,4-thiadiazol-2-yl)-2-(8-(3,3,4,4,4-pentafluorobutyl)imidazo[1,2-a]pyrazin-6-yl)-5H-pyrrolo[2,3-d]pyrimidin-6(7H)-one]
93% | 634 nM | CC(C)c1nnc(C2(C3CC3)C(=O)Nc3nc(-c4cn5ccnc5c(CCC(F)(F)C(F)(F)F)n4)nc(N)c32)s1 (centres unmarked) [Example 55A, 4-amino-5-cyclopropyl-5-(5-isopropyl-1,3,4-thiadiazol-2-yl)-2-(8-(3,3,4,4,4-pentafluorobutyl)imidazo[1,2-a]pyrazin-6-yl)-5H-pyrrolo[2,3-d]pyrimidin-6(7H)-one]
89% | 772 nM | Nc1nc(-c2cn3ccnc3c(CCC(F)(F)C(F)(F)F)n2)nc2c1C(c1nnc(C3CC3)o1)(C1CC1)C(=O)N2 (centres unmarked) [Example 56B, 4-amino-5-cyclopropyl-5-(5-cyclopropyl-1,3,4-oxadiazol-2-yl)-2-(8-(3,3,4,4,4-pentafluorobutyl)imidazo[1,2-a]pyrazin-6-yl)-5H-pyrrolo[2,3-d]pyrimidin-6(7H)-one]
101% | 920 nM | Cc1nnc(C2(C)C(=O)Nc3nc(-c4cn5ccnc5c(CCC(F)(F)C(F)(F)F)n4)nc(N)c32)o1 (centres unmarked) [Example 57A, 4-amino-5-methyl-5-(5-methyl-1,3,4-oxadiazol-2-yl)-2-(8-(3,3,4,4,4-pentafluorobutyl)imidazo[1,2-a]pyrazin-6-yl)-5H-pyrrolo[2,3-d]pyrimidin-6(7H)-one]
93% | 636 nM | Cc1nnc(C2(C)C(=O)Nc3nc(-c4cn5ccnc5c(CCC(F)(F)C(F)(F)F)n4)nc(N)c32)s1 (centres unmarked) [Example 58A, 4-amino-5-methyl-5-(5-methyl-1,3,4-thiadiazol-2-yl)-2-(8-(3,3,4,4,4-pentafluorobutyl)imidazo[1,2-a]pyrazin-6-yl)-5H-pyrrolo[2,3-d]pyrimidin-6(7H)-one]
99% | 109 nM | CC(C)n1cc(C2(C)C(=O)Nc3nc(-c4cn5ccnc5c(Cc5ccc(F)cc5)n4)nc(N)c32)nn1 (centres unmarked) [Example 63A, 4-Amino-2-(8-(4-fluorobenzyl)imidazo[1,2-a]pyrazin-6-yl)-5-(1-isopropyl-1H-1,2,3-triazol-4-yl)-5-methyl-5H-pyrrolo[2,3-d]pyrimidin-6(7H)-one]
115% | 196 nM | CCn1cc(C2(C)C(=O)Nc3nc(-c4cn5ccnc5c(Cc5ccc(F)cc5)n4)nc(N)c32)nn1 (centres unmarked) [Example 64A, 4-amino-5-(1-ethyl-1H-1,2,3-triazol-4-yl)-2-(8-(4-fluorobenzyl)imidazo[1,2-a]pyrazin-6-yl)-5-methyl-5H-pyrrolo[2,3-d]pyrimidin-6(7H)-one]
108% | 256 nM | Cn1cc(C2(C)C(=O)Nc3nc(-c4cn5ccnc5c(Cc5ccc(F)cc5)n4)nc(N)c32)nn1 (centres unmarked) [Example 65A, 4-amino-2-(8-(4-fluorobenzyl)imidazo[1,2-a]pyrazin-6-yl)-5-methyl-5-(1-methyl-1H-1,2,3-triazol-4-yl)-5H-pyrrolo[2,3-d]pyrimidin-6(7H)-one]
127% | 252 nM | C#CC1(C)C(=O)Nc2nc(-c3cn4ccnc4c(CCC(F)(F)C(F)(F)F)n3)nc(N)c21 (centres unmarked) [Example 66A, 4-amino-5-ethynyl-5-methyl-2-(8-(3,3,4,4,4-pentafluorobutyl)imidazo[1,2-a]pyrazin-6-yl)-5H-pyrrolo[2,3-d]pyrimidin-6(7H)-one]
120% | 746 nM | CC(C)n1cc(C2(C)C(=O)Nc3nc(-c4cn5ccnc5c(CCC(F)(F)C(F)(F)F)n4)nc(N)c32)nn1 (centres unmarked) [Example 67A, 4-amino-5-(1-isopropyl-1H-1,2,3-triazol-4-yl)-5-methyl-2-(8-(3,3,4,4,4-pentafluorobutyl)imidazo[1,2-a]pyrazin-6-yl)-5H-pyrrolo[2,3-d]pyrimidin-6(7H)-one]

From patent US9796733B2, “Imidazo-pyrazine derivatives useful as soluble guanylate cyclase activators” (Merck Sharp & Dohme Corp., priority 2014, dated 2017)
